Results from patent US6071884A, “Pharmaceutical compositions and therapeutic methods” (Kirin Beer Kabushiki Kaisha, priority 1992, dated 2000).

How the values were obtained:
[1] = test system: marrow cells (mononuclear cell fraction); assay: Proliferation-stimulating effect on marrow cell of mouse (3H-TdR uptake); type: cell-based, mouse (BALB/c); settings: percentage of control, 72 h; for activity at 1 µg/mL: 10^0 μg/ml; for activity at 0.1 µg/mL: 10^-1 μg/ml; for activity at 0.01 µg/mL: 10^-2 μg/ml; for activity at 0.001 µg/mL: 10^-3 μg/ml
Description: Pharmacological Test 1: Proliferation-Stimulating Effect on Marrow Cell of Mouse
Marrow cells were prepared from the thigh bone of a 7 week old female BALB/c mouse purchased from Japan SLC Co., Ltd., and a mononuclear cell fraction (MNF) obtained by fractionation using a lympholyte-M (Cedar Lane, Ontario, Canada) was used in the following experiment.
The concentration of the MNF was adjusted to 1.5×10^6 cells/ml by using 10% FCS RPMI 1640 (Nissui Pharmaceutical Co., Ltd., Tokyo, Japan) as a culture medium. 10 μl/well of a sample with a predetermined concentration and 100 μl/well of the above-prepared MNF were placed on a round-bottomed 96 well plate, and incubated under the conditions of 37° C. and 5% CO2 for 72 hours. Thereafter, 0.5 μCi/well of ^3 H-thymidine (^3 H-TDR) was added. After 8 hour incubation, the cells were harvested, and the amount of the 3H-TdR taken in the nuclei was measured by a liquid scintillation counter.

[2] = Life-span-increasing effect on irradiation of a lethal dose of radiation; type: in vivo, mouse (BDF1); settings: 10 mice/group, 9 Gy X-ray, 0.1 mg/kg i.v. days 0, 4, 8
Description: Pharmacological Test 4: Life-Span-Increasing Effect on Irradiation of a Lethal Dose of Radiation
An experiment was carried out by using 6 week old female BDF1 mice purchased from Japan SLC Co., Ltd., with 10 mice made one group.
The entire bodies of the entire body of the mice were irradiated with 9 Gy of X-rays by using a Hitachi X-ray irradiator (MBR-1520R), and the day on which the X-ray was irradiated was referred to as "day 0".

blood platelets [3] = assay: Thrombocytopenia-inhibiting effect in X-ray-irradiated mice; type: in vivo, mouse (BDF1); settings: 10 days after 5 Gy X-ray; 0.1 mg/kg i.v. within 2 h; mean ± SD; vehicle per series 10.3, 6.8, 6.7; non-treatment 68.2, 96.9, 73.0
Description: Pharmacological Test 5: Thromboclytopenia-Inhibiting Effect
The thrombocytopenia-inhibiting effect of each sample upon an X-ray-irradiated mouser which is one of models with a decreased number of blood platelets was examined.
An experiment was carried out by using 6 week old female BDF1 mice purchased from Japan SLC Co., Ltd., with 6 mice made one group.
5 Gy of X ray was irradiated to the entire body of the mice by a Hitachi X-ray irradiator CMBR-1520R). Within 2 hours after the irradiation, each sample was administered to the caudal vein of the mice at an amount of 0.1 mg/kg.
(§1) After 10 days, blood was collected from the fundus vein of the mice, and the number of blood platelets was measured by a sequential multi-channel hemocytometer E-2500/cs (Toa Iyo Denshi Kabushiki Kaisha). The number of blood platelets of the non-treated group, that of the medium-administered group, and that of the sample-administered group are shown in Table 5.

blood platelets [4] = assay: Blood-platelet-increasing effect upon normal mouse; type: in vivo, mouse (BDF1); settings: normal mice; 6 days after 0.1 mg/kg i.v.; mean ± SD; vehicle per series 58.2, 63.0, 71.1
Description: Pharmacological Test 6: Blood-Platelet-Increasing Effect upon Mouse
An experiment was carried out by using 6 week old female BDF1 mice purchased from Japan SLC Co., Ltd., with 5 mice made one group.
as §1, with “Each sample was administered to the caudal vein of the mice at a dose of 0.1 mg/kg. After” for “After”, “6” for “10”, “vehicle-administered” for “non-treated group, that of the medium-administered”, “6.” for “5.”

[5] = day 10, controls per series 10, 10, 10, 10, 10, 8
[6] = day 15, controls per series 8, 9, 5, 5, 7, 1
[7] = day 20, controls per series 4, 5, 1, 2, 3, 0
[8] = day 25, controls per series 3, 3, 0, 0, 2, 0
[9] = day 30, controls per series 1, 1, 0, 0, 0, 0

## CCCCCCCCCCCCC/C=C/[C@@H](O)[C@H](CO[C@H]1O[C@H](CO)[C@H](O)[C@H](O)[C@H]1O)NC(=O)CCCCCCCCCCCCC [Compound 32, (2S,3R,4E)-1-(α-D-galactopyranosyloxy)-2-tetradecanoylamino-4-octadecen-3-ol]
[1]
  activity at 1 µg/mL: 871%
  activity at 0.1 µg/mL: 405%
  activity at 0.01 µg/mL: 151%
  activity at 0.001 µg/mL: 115%
[2]; [5]
  Number of Surviving Mice: 10 mice
[2]; [6]
  Number of Surviving Mice: 9 mice
[2]; [7]
  Number of Surviving Mice: 4 mice
[2]; [8]
  Number of Surviving Mice: 3 mice
[2]; [9]
  Number of Surviving Mice: 3 mice
[2]; day 35, all controls 0
  Number of Surviving Mice: 3 mice
[2]; day 40, all controls 0
  Number of Surviving Mice: 3 mice
Blood platelets [3]
  Number of Blood Platelets: 16.4 ± 3.2 × 10^4 /μl
Blood platelets [4]
  Number of Blood Platelets: 88.3 ± 4.2 × 10^4 /μl

## CCCCCCCCCCCCCCCCCCCCCCCC(=O)N[C@@H](CO[C@H]1O[C@H](CO)[C@H](O)[C@H](O)[C@H]1O)[C@H](O)[C@H](O)CCCCCCC [Compound 19, (2S,3S,4R)-1-(α-D-galactopyranosyloxy)-2-tetracosanoylamino-3,4-undecanediol]
[1]
  activity at 0.1 µg/mL: 499%
  activity at 0.01 µg/mL: 207%
  activity at 0.001 µg/mL: 173%
[2]; [5]
  Number of Surviving Mice: 10 mice
[2]; [6]
  Number of Surviving Mice: 10 mice
[2]; [7]
  Number of Surviving Mice: 10 mice
[2]; [8]
  Number of Surviving Mice: 10 mice
[2]; [9]
  Number of Surviving Mice: 10 mice
[2]; day 35, all controls 0
  Number of Surviving Mice: 10 mice
[2]; day 40, all controls 0
  Number of Surviving Mice: 10 mice
Blood platelets [3]
  Number of Blood Platelets: 23.4 ± 4.2 × 10^4 /μl
Blood platelets [4]
  Number of Blood Platelets: 106.4 ± 12.7 × 10^4 /μl

## CCCCCCCCCCCCCCC[C@@H](O)[C@H](CO[C@H]1O[C@H](CO)[C@H](O)[C@H](O)[C@H]1O)NC(C)=O [Compound 8, (2S,3R)-2-acetamino-1-(α-D-galactopyranosyloxy)-3-octadecanol]
[1]
  activity at 0.1 µg/mL: 232%
  activity at 0.01 µg/mL: 81%
  activity at 0.001 µg/mL: 129%
[2]; [5]
  Number of Surviving Mice: 10 mice
[2]; [6]
  Number of Surviving Mice: 5 mice
[2]; [7]
  Number of Surviving Mice: 1 mice
[2]; [8]
  Number of Surviving Mice: 1 mice
[2]; [9]
  Number of Surviving Mice: 1 mice
[2]; day 35, all controls 0
  Number of Surviving Mice: 1 mice
[2]; day 40, all controls 0
  Number of Surviving Mice: 1 mice
Blood platelets [3]
  Number of Blood Platelets: 8.1 ± 2.6 × 10^4 /μl
Blood platelets [4]
  Number of Blood Platelets: 96.6 ± 3.2 × 10^4 /μl

## CCCCCCCC/C=C\CCCCCCCC(=O)N[C@@H](CO[C@H]1O[C@H](CO)[C@H](O)[C@H](O)[C@H]1O)[C@H](O)CCCCCCCCCCCCCCC [Compound 29, (2S,3R)-1-(α-D-galactopyranosyloxy)-2-oleoylamino-3-octadecanol]
[1]
  activity at 1 µg/mL: 865%
  activity at 0.1 µg/mL: 382%
  activity at 0.01 µg/mL: 187%
  activity at 0.001 µg/mL: 97%
[2]; [5]
  Number of Surviving Mice: 10 mice
[2]; [6]
  Number of Surviving Mice: 9 mice
[2]; [7]
  Number of Surviving Mice: 8 mice
[2]; [8]
  Number of Surviving Mice: 8 mice
[2]; [9]
  Number of Surviving Mice: 8 mice
[2]; day 35, all controls 0
  Number of Surviving Mice: 8 mice
[2]; day 40, all controls 0
  Number of Surviving Mice: 8 mice
Blood platelets [3]
  Number of Blood Platelets: 18.1 ± 5.0 × 10^4 /μl
Blood platelets [4]
  Number of Blood Platelets: 86.3 ± 3.1 × 10^4 /μl

## CCCCCCCCCCCCCCCCCCCCCCCC[C@@H](O)C(=O)N[C@@H](CO[C@H]1O[C@H](CO)[C@H](O)[C@H](O)[C@H]1O)[C@H](O)[C@H](O)CCCCCCCCCCCCCCC [Compound 26, (2S,3S,4R)-1-(α-D-galactopyranosyloxy)-2-[(R)-2-hydroxyhexacosanoylamino]-3,4-nonadecanediol]
[1]
  activity at 0.1 µg/mL: 271%
  activity at 0.01 µg/mL: 183%
  activity at 0.001 µg/mL: 156%
[2]; [5]
  Number of Surviving Mice: 10 mice
[2]; [6]
  Number of Surviving Mice: 9 mice
[2]; [7]
  Number of Surviving Mice: 9 mice
[2]; [8]
  Number of Surviving Mice: 8 mice
[2]; [9]
  Number of Surviving Mice: 8 mice
[2]; day 35, all controls 0
  Number of Surviving Mice: 8 mice
[2]; day 40, all controls 0
  Number of Surviving Mice: 8 mice
Blood platelets [3]
  Number of Blood Platelets: 19.8 ± 4.3 × 10^4 /μl
Blood platelets [4]
  Number of Blood Platelets: 113.7 ± 7.1 × 10^4 /μl

## CCCCCCCCCCCCCCC[C@@H](O)[C@H](CO[C@H]1O[C@H](CO)[C@H](O)[C@H](O)[C@H]1O)NC(=O)CCCCCCCCC [Compound 6, (2S,3R)-2-decanoylamino-1-(α-D-galactopyranosyloxy)-3-octadecanol]
[1]
  activity at 0.1 µg/mL: 391%
  activity at 0.01 µg/mL: 196%
  activity at 0.001 µg/mL: 71%
[2]; [5]
  Number of Surviving Mice: 9 mice
[2]; [6]
  Number of Surviving Mice: 6 mice
[2]; [7]
  Number of Surviving Mice: 2 mice
[2]; [8]
  Number of Surviving Mice: 2 mice
[2]; [9]
  Number of Surviving Mice: 2 mice
[2]; day 35, all controls 0
  Number of Surviving Mice: 2 mice
[2]; day 40, all controls 0
  Number of Surviving Mice: 2 mice
Blood platelets [3]
  Number of Blood Platelets: 15.4 ± 3.2 × 10^4 /μl
Blood platelets [4]
  Number of Blood Platelets: 93.0 ± 12.1 × 10^4 /μl

## CCCCCCCCCCCCCCCCCCCC(=O)N[C@@H](CO[C@H]1O[C@H](CO)[C@H](O)[C@H](O)[C@H]1O)[C@H](O)CCCCCCCCCCCCCCC [Compound 3, (2S,3R)-1-(α-D-galactopyranosyloxy)-2-icosanoylamino-3-octadecanol]
[1]
  activity at 0.1 µg/mL: 234%
  activity at 0.01 µg/mL: 87%
  activity at 0.001 µg/mL: 84%
[2]; [5]
  Number of Surviving Mice: 10 mice
[2]; [6]
  Number of Surviving Mice: 9 mice
[2]; [7]
  Number of Surviving Mice: 8 mice
[2]; [8]
  Number of Surviving Mice: 8 mice
[2]; [9]
  Number of Surviving Mice: 8 mice
[2]; day 35, all controls 0
  Number of Surviving Mice: 8 mice
[2]; day 40, all controls 0
  Number of Surviving Mice: 8 mice
Blood platelets [3]
  Number of Blood Platelets: 20.6 ± 4.5 × 10^4 /μl
Blood platelets [4]
  Number of Blood Platelets: 102.0 ± 10.8 × 10^4 /μl

## CCCCCCCCCCCCCCCCCCCCCCCC(=O)N[C@@H](CO[C@H]1O[C@H](CO)[C@H](O)[C@H](O)[C@H]1O)[C@H](O)[C@H](O)CCCCCCCCCCCC(C)C [Compound 31, (2S,3S,4R)-1-(α-D-galactopyranosyloxy)-16-methyl-2-tetracosanoylamino-3,4-heptadecanediol]
[1]
  activity at 1 µg/mL: 624%
  activity at 0.1 µg/mL: 326%
  activity at 0.01 µg/mL: 104%
  activity at 0.001 µg/mL: 101%
[2]; [5]
  Number of Surviving Mice: 10 mice
[2]; [6]
  Number of Surviving Mice: 10 mice
[2]; [7]
  Number of Surviving Mice: 9 mice
[2]; [8]
  Number of Surviving Mice: 9 mice
[2]; [9]
  Number of Surviving Mice: 9 mice
[2]; day 35, all controls 0
  Number of Surviving Mice: 9 mice
[2]; day 40, all controls 0
  Number of Surviving Mice: 9 mice
Blood platelets [3]
  Number of Blood Platelets: 27.7 ± 5.4 × 10^4 /μl
Blood platelets [4]
  Number of Blood Platelets: 108.0 ± 7.0 × 10^4 /μl
